The values below are quoted from earlier work in patent US20090162444A1, “RALOXIFENE COMPOSITION” (priority 2007, published 2009).

Structures are written as SMILES. Structures can show the parent of a compound that is named as a salt.

For data set [1] the following is noted: oral administration.
Assay in data set [2]: not given
The source holds these as a separate data set.

In the case of `O=C(c1ccc(OCCN2CCCCC2)cc1)c1c(-c2ccc(O)cc2)sc2cc(O)ccc12` [Raloxifene, (6-hydroxy-2-(4-hydroxy-phenyl)benzo[b]thien-3-yl)-(4-(2-(1-piperidinyl)ethoxy)phenyl)methanone], the absolute bioavailability entry in data set [1] is “about 2%”.

With `O=C(c1ccc(OCCN2CCCCC2)cc1)c1c(-c2ccc(O)cc2)sc2cc(O)ccc12` [Raloxifene hydrochloride, raloxifene hydrochloride], the solubility in water was 627 µg/mL. For the same molecule, the “solubility in gastric and intestinal fluid” value in data set [2] is “very slightly soluble”.
